Key:
CC(=O)C(=O)O = experiment: purified protein, by the assay type; conditions: pH 7.4; 37.0 °C
Mtb-rDapA [1] = target: T1, Mtb-rDapA (Mycobacterium tuberculosis, UniProt P9WP25); experiment: Fluorescence-based thermal shift assay; type: binding; conditions: ligand 0.2 mM to 1 mM; Mtb-rDapA Tm 84.8 °C
Excerpt: The fluorescence based thermal shift assay for screening of identified ligands, which is based on the principle that ligand binding alters thermal stability of protein. This method allows us to monitor the protein denaturation upon heating using fluorescence based dye (Sypro orange, Sigma, USA), which binds to hydrophobic part of proteins during protein denaturation and emits fluorescence at 580 nm[43]. We can monitor the changes in fluorescence and generate a thermal melting curve using real time PCR. The mid-point of the melting curve designated as the melting temperature Tm corresponding to 50% of protein being denatured.
The thermal shift assay was carried out in the LightCycler^R LC480 qPCR machine using 384 well PCR plates (Roche, USA). An assay mixture of 20 μl contained 20 μM Mtb-rDapA, 15 X Sypro Orange (Sigma), 50 mM sodium phosphate buffer pH 7.4 and ligand in the range 0.2 mM to 1 mM. The ligands and Mtb-rDapA were diluted in sodium phosphate buffer. The PCR plates were sealed with optical seal, mixed well and centrifuged after the assay mixture was added. […] The fluorescence intensity was measured by excitation at 465 nm and emission at 580 nm. Curve fitting, melting temperature calculation and report generation on the raw Fluorescence based thermal shift assay (FTS) data were performed using pre-installed analysis software provided with the instrument (Roche, USA)[44].

Mtb-rDapA [2] = target: T1, Mtb-rDapA; experiment: LC-MS/MRM quantitation of THDP product of the coupled assay; type: biochemical; conditions: MRM, 1 mM KPA (saturating concentration)
Description: The activity of Mtb-rDapA and Mtb-rDapB in catalyzing formation of THDP was confirmed by LC/MS analysis. A reaction mixture contained 1 μg of Mtb-rDapA, 30 μg of Mtb-rDapB, 10 mM pyruvate, 1 mM ASA, 0.16 mM NADPH and 50 mM sodium phosphate buffer pH 7.4 run at 37 °C for 5 min using UV-Vis spectrophotometer for THDP formation. Mtb-rDapA and Mtb-rDapB were then inactivated at 55 °C for 5 min to preserve integrity of reaction products and reaction mixture passed through 10 kDa cutoff filter unit (Millipore, USA) to filter the proteins and centrifuged at 6800 × g. The flow-through containing reaction products was used in LC/MS analysis. In order to observe the effect of inhibitor on THDP formation we added α-KPA in the assay mixture. The sample was subjected to analysis on a LC/ESI-MS (Quattro Micro API, Waters) coupled to a UPLC inlet. The flow through was loaded onto an Acquity UPLC BEH shield RP18, […], 2.1 100 mm column comprising a mobile phase of buffer A (water, 0.1% formic acid) and buffer B (acetonitrile, 0.1% formic acid) at a flow rate of 0.2 ml min^−1. […] Quantitative analysis of THDP formation was carried out by assessment of peak area in multiple reactions monitoring (MRM) mode with precursor ion 172.3 of THDP and corresponding daughter ions 125.6 and 107.5 by using above mentioned LC-MS/MS parameters.

Mtb-rDapA [3] = target: T1, Mtb-rDapA; experiment: Size exclusion chromatography of Mtb-rDapA oligomerization
Description: Prior to gel filtration, the pre-packed Superdex 200 10/300 column (GE Healthcare) was pre-equilibrated with 50 mM Tris HCl pH 7.5, 150 mM NaCl and 10% glycerol. 25 μM Mtb-rDapA in 25 mM Tris/150 mM NaCl buffer was loaded in 500 μl volume. Multiple fractions of 1 ml volume were collected and each fraction runs on 12% SDS-PAGE gel electrophoresis. The ligand α-KPA in 1:5, 1:10 and 1:50 molar ratio of Mtb-rDapA was incubated with Mtb-rDapA and subjected to run as above. The chromatograms were collected by measuring absorption at 280 nm as a function of buffer volume at a flow rate of 0.3 ml/min. The column was calibrated by passing Apoferritin eluted at 10.5 ml, β-Amylase eluted at 12.5 ml, Alcohol dehydrogenase eluted at 13 ml, BSA eluted at 14.5 ml, carbonic anhydrase eluted at 16.9 ml, and cytochrome C eluted at 19 ml followed by a standard curve generation.

[4] = target: T2, recombinant Mtb-DapA (Mtb-rDapA) (Mycobacterium tuberculosis, UniProt P9WP25)
T2 sequence (P9WP25 whole entry, looked up): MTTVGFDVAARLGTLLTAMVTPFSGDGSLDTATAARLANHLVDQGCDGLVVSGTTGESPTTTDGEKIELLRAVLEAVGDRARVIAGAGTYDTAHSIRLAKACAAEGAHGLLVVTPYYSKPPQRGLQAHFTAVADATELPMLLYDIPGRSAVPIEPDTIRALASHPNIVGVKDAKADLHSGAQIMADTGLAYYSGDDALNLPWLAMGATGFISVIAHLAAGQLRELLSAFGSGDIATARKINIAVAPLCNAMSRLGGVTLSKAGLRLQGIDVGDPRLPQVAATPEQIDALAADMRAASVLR

[5] = target: T2, recombinant Mtb-DapA (Mtb-rDapA); experiment: biochemical

T1 sequence (P9WP25 whole entry, looked up): as above

For “recombinant Mtb-DapA (Mtb-rDapA) (Mycobacterium tuberculosis H37Rv)”, the Km (CC(=O)C(=O)O) was 148.8 µM.
For `O=C(O)CCCCC(=O)C(=O)O` [compound 1, 2-oxoheptanedioic acid], the “Tm increase of Mtb-rDapA upon binding” value (Mtb-rDapA [1]) was 1 °C, the “reduction of THDP product peak (SRM peak area / relative abundance)” value (Mtb-rDapA [2]; listed as KPA) was “up to 50%” and the “reduction of THDP product peak (SRM peak area / relative abundance)” value (Mtb-rDapA [2]; listed as α-KPA) was 50%. The “effect on Mtb-rDapA oligomerization” value (Mtb-rDapA [3]; ratios of 1:5 and 1:10 of Mtb-rDapA to α-KPA) was “the oligomerization was not affected”, the “effect on Mtb-rDapA oligomerization” value (Mtb-rDapA [3]; α-KPA in 50-fold molar excess, 37 °C, 5 min) was “did not obtain any peak corresponding to either the tetramer or the octamer” and the “fold increase of IC50, pre-incubation with pyruvate vs pre-incubation with α-KPA” value [4] was roughly 8 fold. For the same compound, the Ki [5] was 32.5 µM, the IC50 ([5]; IC50) was 160 µM and the IC50 ([5]; IC50, pyruvate 500 μM, ASA 400 μM) was 21 µM. The IC50 ([5]; IC50 of α-KPA, pyruvate 0.17 mM, ASA 400 μM, 10 min from start) was 21 µM, the IC50 ([5]; IC50 of α-KPA, pyruvate 0.17 mM, ASA 400 μM, 20 min from start) was 21 µM and the IC50 ([5]; IC50 of α-KPA, pyruvate 0.17 mM, ASA 400 μM, 30 min from start) was 21 µM. The IC50 ([5]; IC50 of α-KPA, pyruvate 0.17 mM, ASA 400 μM, 40 min from start) was 31 µM, the IC50 ([5]; IC50 of α-KPA, pyruvate 0.17 mM, ASA 400 μM, 50 min from start) was 41 µM and the IC50 ([5]; IC50 of α-KPA, pyruvate 0.17 mM, ASA 400 μM, 60 min from start) was 51 µM. It also gave an IC50 ([5]; IC50 of α-KPA, pyruvate 0.3 mM, ASA 400 μM, 10 min from start) of 21 µM, an IC50 ([5]; IC50 of α-KPA, pyruvate 0.3 mM, ASA 400 μM, 20 min from start) of 21 µM and an IC50 ([5]; IC50 of α-KPA, pyruvate 0.3 mM, ASA 400 μM, 30 min from start) of 21 µM. It also gave an IC50 ([5]; IC50 of α-KPA, pyruvate 0.3 mM, ASA 400 μM, 40 min from start) of 31 µM, an IC50 ([5]; IC50 of α-KPA, pyruvate 0.3 mM, ASA 400 μM, 50 min from start) of 41 µM and an IC50 ([5]; IC50 of α-KPA, pyruvate 0.3 mM, ASA 400 μM, 60 min from start) of 51 µM. The IC50 ([5]; IC50 of α-KPA, pyruvate 1 mM, ASA 400 μM, 10 min from start) was 21 µM, the IC50 ([5]; IC50 of α-KPA, pyruvate 1 mM, ASA 400 μM, 20 min from start) was 21 µM and the IC50 ([5]; IC50 of α-KPA, pyruvate 1 mM, ASA 400 μM, 30 min from start) was 21 µM. The IC50 ([5]; IC50 of α-KPA, pyruvate 1 mM, ASA 400 μM, 40 min from start) was 31 µM, the IC50 ([5]; IC50 of α-KPA, pyruvate 1 mM, ASA 400 μM, 50 min from start) was 41 µM and the IC50 ([5]; IC50 of α-KPA, pyruvate 1 mM, ASA 400 μM, 60 min from start) was 51 µM. For the same compound, the IC50 ([5]; IC50 of α-KPA, pyruvate 2 mM, ASA 400 μM, 10 min from start) was 61 µM, the IC50 ([5]; IC50 of α-KPA, pyruvate 2 mM, ASA 400 μM, 20 min from start) was 61 µM and the IC50 ([5]; IC50 of α-KPA, pyruvate 2 mM, ASA 400 μM, 30 min from start) was 71 µM. For the same compound, the IC50 ([5]; IC50 of α-KPA, pyruvate 2 mM, ASA 400 μM, 40 min from start) was 81 µM, the IC50 ([5]; IC50 of α-KPA, pyruvate 2 mM, ASA 400 μM, 50 min from start) was 91 µM and the IC50 ([5]; IC50 of α-KPA, pyruvate 2 mM, ASA 400 μM, 60 min from start) was 101 µM. It also gave an Emax ([5]; read-out: Maximal Inhibition (%)) of 88% and an inhibition at 400 µM ([5]; read-out: maximal inhibition) of 77%.
